Laboratory results as given in US6251917A, “Benzamidoaldehydes and their use as cysteine protease inhibitors” (BASF Aktiengesellschaft, priority 1996, dated 2001).

Molecular target: T1, Human μ-calpain (Homo sapiens, UniProt P07384)
T1 construct: Human μ-calpain is isolated from erythrocytes; from tissue; host or cells: human erythrocytes
T1 sequence (P07384 1-714): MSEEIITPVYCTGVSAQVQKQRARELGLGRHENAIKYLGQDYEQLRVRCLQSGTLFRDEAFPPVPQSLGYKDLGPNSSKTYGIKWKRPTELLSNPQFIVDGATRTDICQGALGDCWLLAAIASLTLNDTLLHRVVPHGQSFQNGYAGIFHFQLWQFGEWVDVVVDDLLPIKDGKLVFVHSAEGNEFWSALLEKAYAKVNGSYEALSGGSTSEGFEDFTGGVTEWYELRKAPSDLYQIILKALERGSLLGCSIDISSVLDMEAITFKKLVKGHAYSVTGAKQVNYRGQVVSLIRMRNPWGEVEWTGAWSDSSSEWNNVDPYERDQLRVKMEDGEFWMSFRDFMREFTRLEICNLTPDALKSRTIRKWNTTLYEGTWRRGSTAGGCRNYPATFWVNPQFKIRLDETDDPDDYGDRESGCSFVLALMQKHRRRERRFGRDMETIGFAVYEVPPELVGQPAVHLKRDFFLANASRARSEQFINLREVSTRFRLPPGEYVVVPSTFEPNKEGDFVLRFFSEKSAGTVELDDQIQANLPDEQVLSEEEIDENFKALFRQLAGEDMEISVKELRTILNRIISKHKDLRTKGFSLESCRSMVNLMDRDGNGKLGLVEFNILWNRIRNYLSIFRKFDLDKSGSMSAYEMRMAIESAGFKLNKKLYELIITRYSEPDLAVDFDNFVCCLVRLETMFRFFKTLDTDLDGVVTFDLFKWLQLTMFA
T1 sequence (P04632 1-268 partner): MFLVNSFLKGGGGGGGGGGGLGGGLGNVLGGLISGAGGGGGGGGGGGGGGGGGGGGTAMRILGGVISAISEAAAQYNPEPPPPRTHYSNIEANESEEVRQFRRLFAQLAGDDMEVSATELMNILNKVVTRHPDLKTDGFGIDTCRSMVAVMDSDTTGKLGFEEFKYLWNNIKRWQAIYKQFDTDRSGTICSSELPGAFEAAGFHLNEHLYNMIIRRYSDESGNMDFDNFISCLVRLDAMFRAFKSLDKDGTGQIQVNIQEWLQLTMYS
Test: Calpain I and II test (fluorogenic substrate Suc-Leu-Tyr-AMC)
Type: biochemical
Method: The inhibitory properties of calpain inhibitors were studied in a buffer containing 50 mM of Tris-HCl, pH 7.5; 0.1 M of NaCl; 1 mM of dithiotreithol; 0.11 mM of CaCl2, using the fluorogenic calpain substrate Suc-Leu-Tyr-AMC (25 mM dissolved in DMSO, Bachem/Switzerland) (Sasaki et al. J. Biol. Chem. 1984, Vol. 259, 12489-12494). Human μ-calpain is isolated from erythrocytes similarly to the methods of Croall and DeMartino (BBA 1984, Vol. 788, 348-355) and Graybill et al. (Bioorg. & Med. Lett. 1995, Vol. 5, 387-392). After several chromatographic steps (DEAE-Sepharose, Phenyl-Sepharose, Superdex 200 and Blue-Sepharose), the enzyme is obtained in a purity of <[sic] 95%, according to SDS-PAGE, Western blot analysis and N-terminal sequencing. The fluorescence of the cleavage product 7-amino-4-methylcoumarin (AMC) is monitored in a Spex-Fluorolog fluorimeter at λex =380 nm an λem =460 nm. Over a measured range of 60 min, the cleavage of the substrate is linear and the autocatalytic activity of calpain is low when the experiments are carried out at 12° C. (see Chatterjee et al. 1996, Bioorg. & Med. Chem. Lett., Vol 6, 1619-1622). […]
In a typical experiment, 10 μl of substrate (250 μm final) and then 10 μl of μ-calpain (2 μg/ml final, i.e. 18 nM) are added to a 1 ml cuvette containing buffer. The calpain-mediated cleavage of the substrate is measured for 15 to 20 min. […]

- effectiveness compared with N-(1-3-phenylpropan-1-al-2-yl)benzamide (comparison with literature compound (M. R. Angelastro et al., J. Med. Chem. 1990, 33, 11-13)): significantly more effective
- Ki (reversible inhibition, 12° C., pH 7.5): < 500 nM
Structure (SMILES): O=C[C@H](Cc1ccccc1)NC(=O)c1ccccc1-c1ccccc1 [Example 30, (S)-2-Phenyl-N-(3-phenylpropan-1-al-2-yl)benzamide]
